Laboratory results taken from US10870635B2, “Compounds and their use as BACE1 inhibitors” (ALLGENESIS BIOTHERAPEUTICS, INC., priority 2015, dated 2020).

Molecular target: BACE1 (recombinant β-secretase enzyme) (Homo sapiens (Human), UniProt P56817)
Test: AnaSpec BACE1 fluorescent assay (beta-secretase activity assay)
Type: biochemical
Conditions: not given
Protocol: A BACE1 activity assay kit from AnaSpec (Fremont, Calif.) was used to determine the potency of the selected BACE1 inhibitors by AnaSpec BACE1 fluorescent assay. The recombinant β-secretase enzyme was diluted 1:200 in 1× assay buffer (1 part of 1× assay buffer and 1 part of TBS containing 0.1% Tween 20). The enzyme was added in a volume of 40 μl to each well of a black 96-well micro plate.
The BACE1 inhibitors were serially diluted into DMSO from their 10 mM stock concentrations in DMSO. The serially diluted inhibitors were diluted 1:100 into 1× assay buffer in a 96-well polypropylene plate (assay dilution plate). The final concentration of the BACE1 inhibitor tested was 300 nM, 100 nM, 30 nM, 10 nM, 3 nM, 1 nM 0.3 nM, and 0.00 nM. Dose responses for inhibitors were run in duplicate.
A volume of 10 μl of the inhibitor from the assay dilution plate, a control inhibitor LY2886721 or inhibitor vehicle was then added to each well of the black 96-well micro plate containing BACE1.
To each well of the black 96-well micro plate, 50 μl of the β-secretase substrate (Hylite Fluor 488) diluted 1:100 using assay buffer was added. The reagents were mixed gently and the assay plate was placed into a POLARstar fluorescent plate reader with excitation wavelength set at 485 nm and the emission wavelength set at 520 nm. The plate reader was set to take readings every 5 minutes for up to 30 minutes or a 30 minute endpoint reading was used.
An appropriate integrated first-order rate equation was used to fit the data accumulated over a 30-40 minute collection period.

BACE1 (recombinant β-secretase enzyme), sequence (P56817 46-501): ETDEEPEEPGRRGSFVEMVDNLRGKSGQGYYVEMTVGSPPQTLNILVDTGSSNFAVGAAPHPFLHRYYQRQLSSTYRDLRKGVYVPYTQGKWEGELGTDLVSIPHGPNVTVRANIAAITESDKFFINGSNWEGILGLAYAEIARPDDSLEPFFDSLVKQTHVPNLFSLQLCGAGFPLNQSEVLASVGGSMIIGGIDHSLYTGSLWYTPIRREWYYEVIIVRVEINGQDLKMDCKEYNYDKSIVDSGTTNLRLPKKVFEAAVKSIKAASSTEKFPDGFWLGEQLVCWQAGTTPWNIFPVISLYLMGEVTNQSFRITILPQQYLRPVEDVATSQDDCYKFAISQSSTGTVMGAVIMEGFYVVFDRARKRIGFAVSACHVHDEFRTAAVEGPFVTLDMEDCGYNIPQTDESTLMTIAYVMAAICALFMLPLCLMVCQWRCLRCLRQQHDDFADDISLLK

Row | SMILES | IC50
1 | CC#Cc1ccc2c(c1)-c1cc([C@]3(C)CC(=O)N(C)C(=N)N3)ccc1S2(=O)=O [Example 79, (S)-2-Amino-6-(5,5-dioxido-8-(prop-1-yn-1-yl)dibenzo[b,d]thiophen-2-yl)-3,6-dimethyl-5,6-dihydropyrimidin-4(3H)-one] | 87 nM
2 | CCCc1ccc2sc3ccc([C@]4(C)CC(=O)N(C)C(=N)N4)cc3c2c1 [Example 89, (S)-2-Imino-3,6-dimethyl-6-(8-propyl-dibenzo[b,d]thiophen-2-yl)tetrahydro-pyrimidin-4(1H)-one] | > 300 nM
3 | CC#Cc1ccc2c(c1)-c1cc([C@]3(C)CC(=O)N(C)C(=N)N3)ccc1C2(F)F [Example 82, (S)-6-(9,9-Difluoro-6-(prop-1-yn-1-yl)-9H-fluoren-3-yl)-2-imino-3,6-dimethyltetrahydropyrimidin-4(1H)-one] | > 300 nM
4 | CN1C(=N)N[C@](C)(c2ccc3sc4ccc(C#CCO)cc4c3c2)CC1=O [Example 87, (S)-2-Amino-6-(8-(3-hydroxyprop-1-yn-1-yl)dibenzo[b,d]thiophen-2-yl)-3,6-dimethyl-5,6-dihydropyrimidin-4(3H)-one] | 17 nM
5 | CC#Cc1ccc2c(c1)-c1cc([C@]3(C)CC(=O)N(C)C(=N)N3)ccc1C2(C)C [Example 81, (S)-6-(9,9-Dimethyl-6-(prop-1-yn-1-yl)-9H-fluoren-3-yl)-2-imino-3,6-dimethyl-tetrahydropyrimidin-4(1H)-one] | > 300 nM
6 | CN1C(=N)N[C@](C)(c2ccc3sc4ccc(C5CC5)cc4c3c2)CC1=O [Example 90, (S)-6-(8-Cyclopropyldibenzo[b,d]thiophen-2-yl)-2-imino-3,6-dimethyl-tetrahydropyrimidin-4(1H)-one] | 78 nM
7 | CC#Cc1ccc2sc3ccc([C@]4(C)CC(=O)N(CC(F)F)C(=N)N4)cc3c2c1 [Example 105, (S)-3-(2,2-Difluoroethyl)-2-imino-6-methyl-6-(8-(prop-1-yn-1-yl)dibenzo [b,d]thiophen-2-yl)tetrahydropyrimidin-4(1H)-one] | > 300 nM
8 | CN1C(=N)N[C@](C)(c2ccc3sc4ccc(Br)cc4c3c2)CC1=O [Example 88, (S)-6-(8-Bromodibenzo[b,d]thiophen-2-yl)-2-imino-3,6-dimethyltetrahydro-pyrimidin-4(1H)-one] | > 300 nM
9 | CC#Cc1ccc2sc3ccc([C@]4(C)CS(=O)(=O)N(C)C(=N)N4)cc3c2c1 [Example 104, (R)-3-Imino-2,5-dimethyl-5-(8-(prop-1-yn-1-yl)dibenzo[b,d]thiophen-2-yl)-1,2,4-thiadiazinane 1,1-dioxide] | > 300 nM
10 | CCN(CC)c1ccc2sc3ccc([C@]4(C)CC(=O)N(C)C(=N)N4)cc3c2c1 [Example 92, (S)-6-(8-(Diethylamino)dibenzo[b,d]thiophen-2-yl)-2-imino-3,6-dimethyl-tetrahydropyrimidin-4(1H)-one] | > 300 nM
11 | CC#Cc1ccc2sc3ccc([C@]4(C)CN(C)C(=O)C(=N)N4)cc3c2c1 [Example 115, (R)-3-Imino-1,5-dimethyl-5-(8-(prop-1-yn-1-yl)dibenzo[b,d]thiophen-2-yl) piperazin-2-one] | > 300 nM
12 | CC#Cc1ccc2sc3ccc([C@]4(C5CC5)CC(=O)N(C)C(=N)N4)cc3c2c1 [Example 99, (R)-6-Cyclopropyl-2-imino-3-methyl-6-(8-(prop-1-yn-1-yl)dibenzo[b,d]thiophen-2-yl)tetrahydropyrimidin-4(1H)-one] | > 300 nM
13 | CC#Cc1ccc2sc3cc(F)c([C@]4(C)CC(=O)N(C)C(=N)N4)cc3c2c1 [Example 72, (S)-6-(3-Fluoro-8-(prop-1-yn-1-yl)dibenzo[b,d]thiophen-2-yl)-2-imino-3,6-dimethyltetrahydropyrimidin-4(1H)-one] | 21 nM
14 | CC#Cc1ccc2sc3ccc([C@]4(C)CC(=O)N(CCOC)C(=N)N4)cc3c2c1 [Example 106, (S)-2-Imino-3-(2-methoxyethyl)-6-methyl-6-(8-(prop-1-yn-1-yl)dibenzo[b,d]thiophen-2-yl)tetrahydropyrimidin-4(1H)-one] | > 300 nM
15 | CC#Cc1ccc2c(c1)c1cc([C@]3(C)CC(=O)N(C)C(=N)N3)ccc1[s+]2[O-] (stereo partly drawn) [Example 80, (6S)-2-Amino-3,6-dimethyl-6-(5-oxido-8-(prop-1-yn-1-yl)dibenzo[b,d]thiophen-2-yl)-5,6-dihydropyrimidin-4(3H)-one] | 48 nM
16 | CN1C(=N)N[C@](C)(c2ccc3sc4ccc(C(N)=O)cc4c3c2)CC1=O [Example 91, (S)-8-(2-Imino-1,4-dimethyl-6-oxohexahydropyrimidin-4-yl)dibenzo [b,d]thiophene-2-carboxamide] | > 300 nM
17 | CN1C(=N)N[C@](C)(c2ccc3sc4ccc(C(F)(F)F)cc4c3c2)CC1=O [Example 94, (S)-2-Amino-3,6-dimethyl-6-(8-(trifluoromethyl)dibenzo[b,d]thiophen-2-yl)-5,6-di hydropyrimidin-4(3H)-one] | 81 nM
18 | CN1C(=N)N[C@](C)(c2ccc3sc4ccc(C#N)cc4c3c2)CC1=O [Example 85, (S)-8-(2-Imino-1,4-dimethyl-6-oxohexahydropyrimidin-4-yl) dibenzo[b,d]thiophene-2-carbonitrile] | > 300 nM
19 | COCC#Cc1ccc2sc3ccc([C@]4(C)CC(=O)N(C)C(=N)N4)cc3c2c1 [Example 86, (S)-2-Amino-6-(8-(3-methoxyprop-1-yn-1-yl)dibenzo[b,d]thiophen-2-yl)-3,6-dimethyl-5,6-dihydropyrimidin-4(3H)-one] | 218 nM
20 | CC#Cc1ccc2sc3ccc([C@@]4(C)NC(=N)OCC4(F)F)cc3c2c1 [Example 100, (R)-5,5-Difluoro-4-methyl-4-(8-(prop-1-yn-1-yl)dibenzo[b,d]thiophen-2-yl)-1,3-oxazinan-2-imine] | 202 nM

Test system: Aβ38, Aβ40 and Aβ42 in CSF
Test: Efficacy study in monkeys: Aβ biomarkers in CSF after single oral administration
Type: in vivo, cynomolgus monkeys
Conditions: Monkey CSF
From the text: Certain isoforms of amyloid β peptide (AR), such as Aβ338, Aβ340 and Aβ342 have been established as relevant biomarkers that reflect BACE1 activity and have been exploited to establish translational relationships between different cellular assays and animal models. In this efficacy study, mammals were used to assess amyloid β reduction with BACE1 inhibitors. In a clinical setting, plasma and cerebrospinal fluid (CSF) are the accessible compartments to measure soluble amyloid β levels to determine target profile. It is important to analyze plasma and CSF levels which relate to changes in brain amyloid β levels. The concentration of BACE1 inhibitors and their time-dependent reduction of plasma, CSF and brain amyloid β levels were investigated following intravenous and oral administrations of BACE1 inhibitors.
a (ii). Formulation for PO administration: 5% (v/v) PEG400+95% (v/v) of 1% (w/v) methyl cellulose in water (the viscosity of methyl cellulose is 20 g/L, 20° C., cPa·s: 350.0-550.0). The test article solutions were prepared by dissolving the compound in PEG400 followed by the addition of the aqueous solution to the final volume.
For the oral formulation of a BACE1 inhibitor in the monkey efficacy study (at the dose of 20 mg/kg with the concentration of 2 mg/ml)
1) Weighed […] of the selected BACE1 inhibitors into a clean vial;
2) Added 2.826 mL of PEG400 into the tube containing the compound. Then vortexed for 5 min and sonicated for 45 min;
3) Added 53.688 mL of 1% MC in water into the tube containing the compound. Then vortexed for 4 min and sonicated for 4 min; and
4) Adjusted the pH to the physiological value by using 1N NaOH.
Several studies have shown that drug transport into the CNS may be more similar between humans and primates. […] To explore the mechanism of BACE1 compounds, the compounds were tested using this in vivo study. […] The monkey Aβ reduction study usually takes 3 weeks.
The time-course profiles of neurodegeneration biomarkers were determined following single oral administration of the selected BACE1 inhibitors to male cynomolgus monkeys. Blood samples were collected from all animals via the saphenous vein or cephalic vein at 0 (pre-dose), 0.5, 1, 3, 6, 8, 12 and 24 hr post-dose into test tubes containing potassium ethylenediaminotetraacetic acid (K2EDTA). CSF samples were collected via a pre-implanted cannula at the foramina occipital magnum site at 0 (pre-dose), 3, 6, 12 and 24 hr post-dose.
Plasma was separated from the blood by centrifugation at 4° C. and stored at −80° C. until analyzing. The biomarkers of Aβ38, Aβ40 and Aβ42 in CSF were quantified using Meso Scale Discovery (MSD) multiplex electrochemiluminescence immunoassay according to the manufacturer's instructions. The plates were first blocked with 150 μL of Diluent 35 for 1 hour at room temperature with constant shaking at 600 rpm. After washing three times with 200 μL washing buffer, 25 μL of 1× detection antibody solution, plus Aβ40 blocker, 25 μL of seven standards, zero standard and four-fold diluted samples were added to the assay plate. The plate was incubated for 2 hours at room temperature, with constant shaking at 600 rpm. Upon finishing, the plate was washed three times with washing buffer and read in a Sector Imager 6000 (MSD) immediately after addition of 150 μL of 2× Read Buffer T. Aβ concentrations were calculated with reference to the standard curves of each individual peptide and expressed as pg/mL using SoftMax Pro GXP 5.4.4.

Row | SMILES | % of maximum Aβ40 inhibition over 24 hours
21 | CC#Cc1ccc2sc3ccc([C@]4(C)CS(=O)(=O)C5(CC5)C(=N)N4)cc3c2c1 [Example 136, (R)-8-Imino-6-methyl-6-(8-(prop-1-yn-1-yl)dibenzo[b,d]thiophen-2-yl)-4-thia-7-azaspiro[2.5]octane 4,4-dioxide] | 44.5%
22 | CC#Cc1cc2c(cc1F)sc1ccc([C@]3(C)CS(=O)(=O)C(C)(C)C(=N)N3)cc12 [Example 128, (R)-5-(7-Fluoro-8-(prop-1-yn-1-yl)dibenzo[b,d]thiophen-2-yl)-3-imino-2,2,5-trimethylthiomorpholine 1,1-dioxide] | 49.1%
23 | CC#Cc1ccc2sc3cc(F)c([C@]4(C)CC(=O)N(C)C(=N)N4)cc3c2c1 [Example 72, (S)-6-(3-Fluoro-8-(prop-1-yn-1-yl)dibenzo[b,d]thiophen-2-yl)-2-imino-3,6-dimethyltetrahydropyrimidin-4(1H)-one] | 33.7%
